Measurements published in patent US9120749B2, “Quinoline derivatives and MELK inhibitors containing the same” (ONCOTHERAPY SCIENCE, INC., priority 2010, dated 2015).
Where two headings read alike, the source gives them in different places.

What was measured:
MELK = MELK (Homo sapiens, UniProt Q14680); test: Kinase assay: MELK activity, phosphorylation of FITC-labeled histone H3 peptide measured by IMAP fluorescence polarization; assay type: biochemical; conditions: read-out: IC50 (μM) (kinase assay)
Procedure, shortened: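 Compounds, serially diluted from 12.5 mM DMSO stocks to 1% final DMSO, were tested with FITC-labeled histone H3 peptide as substrate. The reaction was stopped with progressive binding solution. Fluorescence polarization was read after 0.5 hour at room temperature.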

HT-1197 cells = test: Cell-based assay: anti-proliferative activity, Cell Counting Kit-8, 72 hours (HT-1197, negative control without MELK expression); conditions: Homo sapiens, HT1197, 72 h, HT1197 cells (negative control, no MELK expression), 72 hours
Procedure, shortened: (§1)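 Anti-MELK western blot on crude lysates → MELK status per line. Cells plated 96-well, compound exposure, CCK-8 readout at 72 h; IC50 calculated.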

DU4475 = test: Cell-based assay: anti-proliferative activity, Cell Counting Kit-8, 72 hours (DU4475); conditions: Homo sapiens, DU-4475, DU4475 cells
A549 cells = test: Cell-based assay: anti-proliferative activity, Cell Counting Kit-8, 72 hours (A549); conditions: Homo sapiens, A549, 72 h, 72 hours
Procedure, shortened: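 A549 cells seeded in 96-well plates and exposed to candidate inhibitors for 72 hours. Growth measured with Cell Counting Kit-8; IC50 values calculated from the dose response.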

T47D cells = test: Cell-based assay: anti-proliferative activity, Cell Counting Kit-8, 72 hours (T47D); conditions: Homo sapiens, T47D, 72 h
Procedure, shortened: as §1

[1] = 50 micro-M ATP, FITC-labeled histone H3 peptide substrate, IMAP fluorescence polarization

Chain of MELK (Q14680 whole entry, looked up): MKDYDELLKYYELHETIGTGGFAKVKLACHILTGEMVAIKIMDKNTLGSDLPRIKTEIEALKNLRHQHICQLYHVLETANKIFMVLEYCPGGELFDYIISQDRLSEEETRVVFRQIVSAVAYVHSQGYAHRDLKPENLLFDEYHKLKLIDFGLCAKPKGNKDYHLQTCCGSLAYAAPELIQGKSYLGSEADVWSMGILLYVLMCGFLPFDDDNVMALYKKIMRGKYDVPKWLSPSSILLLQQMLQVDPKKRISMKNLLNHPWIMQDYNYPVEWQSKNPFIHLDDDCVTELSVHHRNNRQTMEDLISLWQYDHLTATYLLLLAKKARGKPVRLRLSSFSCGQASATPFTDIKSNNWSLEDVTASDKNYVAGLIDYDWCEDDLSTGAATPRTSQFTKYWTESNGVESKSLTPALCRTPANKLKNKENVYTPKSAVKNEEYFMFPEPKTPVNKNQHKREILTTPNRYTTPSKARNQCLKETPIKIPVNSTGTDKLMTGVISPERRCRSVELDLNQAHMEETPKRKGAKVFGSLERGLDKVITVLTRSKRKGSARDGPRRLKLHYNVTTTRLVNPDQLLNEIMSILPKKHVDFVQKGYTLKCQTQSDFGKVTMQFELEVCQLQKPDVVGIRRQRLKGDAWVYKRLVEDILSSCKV

SMILES | IC50 (MELK) [µM] | IC50 (HT-1197 cells) [µM] | IC50 (DU4475) [µM] | IC50 (A549 cells) [µM] | IC50 (T47D cells) [µM] | IC50 (MELK; [1]) [µM]
COc1cc(-c2ccc3ncc(C(C)=O)c(N4CCN(C(=O)CN(C)C)CC4)c3c2)cc(Cl)c1O [Example 477, 1-(4-(3-acetyl-6-(3-chloro-4-hydroxy-5-methoxyphenyl)quinolin-4-yl)piperazin-1-yl)-2-(dimethylamino)ethanone] | 0.0016 | 4.7 | 0.3 | 0.36 | 0.87 | 
NCc1ccc(Nc2c(C(=O)C3CC3)cnc3ccc(-c4cc(F)c(O)c(Cl)c4)cc23)cc1 [Example 504, {4-[4-(Aminomethyl)phenylamino]-6-(3-chloro-5-fluoro-4-hydroxyphenyl)quinolin-3-yl}(cyclopropyl)methanone] | 0.0089 | 0.71 | 0.019 | 0.081 | 0.084 | 
CN1CCN(c2ccc(Nc3c(C(=O)C4CC4)cnc4ccc(-c5cc(F)c(O)c(Cl)c5)cc34)cn2)CC1 [Example 471] | 0.011 | 2.8 | 0.14 | 0.21 | 0.14 | 
CN(C)CC1CCN(c2c([S+](C)[O-])cnc3ccc(-c4ccc(O)c(Cl)c4)cc23)CC1 (centres unmarked) [Example 466] |  | 6.7 | 1.1 | 1.9 | 0.67 | 0.016
O=C(c1cnc2ccc(-c3cc(Cl)c(O)c(Cl)c3)cc2c1Nc1ccc(N2CCNCC2)nc1)C1CC1 [Example 409, Cyclopropyl{6-(3,5-dichloro-4-hydroxyphenyl)-4-[6-(piperazin-1-yl)pyridin-3-ylamino]quinolin-3-yl}methanone] |  | 1.6 | 0.098 | 0.26 | 0.074 | 0.0017
CC(=O)c1cnc2ccc(-c3cc(Cl)c(O)c(Cl)c3)cc2c1Nc1ccc(CN2CCCC2)cc1 [Example 415, 1-(6-(3,5-dichloro-4-hydroxyphenyl)-4-((4-(pyrrolidin-1-ylmethyl)phenyl)amino)quinolin-3-yl)ethanone] |  | 10 | 0.067 | 0.15 | 0.12 | 0.035
COc1cc(-c2ccc3ncc(C(=O)C4CC4)c(Nc4cnc(N5CCNCC5)nc4)c3c2)cc(Cl)c1O [Example 503, (6-(3-chloro-4-hydroxy-5-methoxyphenyl)-4-(2-(piperazin-1-yl)pyrimidin-5-ylamino)quinolin-3-yl)(cyclopropyl)methanone] | 0.0047 | 1.1 | 0.46 | 0.37 | 0.24 | 
CN(C)Cc1ccc(Nc2c(S(C)(=O)=O)cnc3ccc(-c4cc(F)c(O)c(Cl)c4)cc23)cc1 [Example 399, 2-chloro-4-(4-(4-((dimethylamino)methyl)phenylamino)-3-(methylsulfonyl)quinolin-6-yl)-6-fluorophenol] |  | 1.9 | 0.16 | 0.47 | 0.27 | 0.016
CN1CCN(Cc2ccc(Nc3c(C(=O)C4CC4)cnc4ccc(-c5cc(Cl)c(O)c(Cl)c5)cc34)cc2)CC1 [Example 397, Cyclopropyl{6-(3,5-dichloro-4-hydroxyphenyl)-4-[4-((4-methylpiperazin-1-yl)methyl)phenylamino]quinolin-3-yl}methanone] |  | 5.2 | 0.088 | 0.15 | 0.33 | 0.0076
CC(C)C(=O)c1cnc2ccc(-c3cc4cc(O)ccc4[nH]3)cc2c1N[C@H]1CC[C@H](N)CC1 [Example 480] | 0.054 | 4.6 | 0.93 | 2.7 | 0.59 | 
N#Cc1ncc(-c2ccc3ncc(C(=O)C4CC4)c(Nc4ccc(CN5CCOCC5)cc4)c3c2)cn1 [Example 461] |  | 2 | 0.41 | 1.6 | 0.17 | 0.015
COc1cc(-c2ccc3ncc(C(=O)C4CC4)c(Nc4ccc(N5CCN(C)CC5)nc4)c3c2)cc(Cl)c1O [Example 470] | 0.015 | 2.2 | 0.68 | 0.56 | 0.26 | 
CCN(CC)C1CCC(Nc2c(C(=O)C3CCCC3)cnc3ccc(-c4cc(F)c(O)c(Cl)c4)cc23)CC1 (centres unmarked) [Example 386, (6-(3-chloro-5-fluoro-4-hydroxyphenyl)-4-(4-(diethylamino)cyclohexylamino)quinolin-3-yl)(cyclopentyl)methanone] |  | 0.78 | 0.29 | 0.4 | 0.41 | 0.0092
